# Test results published in patent publication US20090030079A1 (priority 2007, published 2009).
# Read-outs that look alike come from different tables or passages of the source.
# How the values were obtained:
# [1] = Decorporation of Polonium-210: tissue distribution of IV administered Po-210 in rats; assay type: in vivo, Wistar-Han rats; details: for % Reduction of Po-210 vs Po-210 Control / effect on polonium-210 level (in words): oral 15 mg/kg x 5, day 6; for Po-210 dpm/gm for animal group: single IV Po-210 approx. 90 kBq, oral 15 mg/kg every 24 h x 5, sacrifice day 6
# Experimental: The digested sample was diluted with distilled water to reduce the nitric acid to approximately 1 M. An aliquot of the resulting solution was added to Ultima Gold XR liquid scintillation cocktail (Packard BioScience, Meriden, Conn.), counted and corrected for possible quenching.
# [2] = Cu^1+, cited from earlier work
# [3] = In^3+, cited from earlier work
# [4] = Cd^2+, cited from earlier work
# [5] = Zn^2+, cited from earlier work
# [6] = Ni^2+, cited from earlier work
# [7] = Co^2+; cited from earlier work
# [8] = Pb^2+, cited from earlier work
# [9] = Decorporation of Cobalt-60: tissue distribution and excretion of IV administered Co-60 in rats; assay type: in vivo, Male Wistar-Han rats; details: for Co-60 Dose % for animal group: single IV Co-60 14 KBq, 48 hr post exposure; for effect on total Co-60 excretion (urine and feces): monitored 2 days, not statistically significant, 15 mg/kg
# Experimental: Materials. Chloride stock solution of ^60Co as ^60CoCl2 was diluted with sterile saline solution to adjust to the desired activity and used for the IV dosing. Activity of the dosing solution was determined using automated Wallac 1480 (Perkin Elmer) gamma counter equipped with 3 inch NaI(TI) crystal shielded detector.
# Animals. Male Wistar-Han rats were obtained from Charles River Breeding Laboratory (Raleigh, N.C.) with indwelling jugular vein cannula. Animals were provided food and water ad libitum during acclimatization. The light cycle was 12 hour light/12 hour dark and relative humidity and temperature maintained at 50±15% and 22±2° C. All animal use protocols were approved by the Institutional Animal Care and Use Committee at Battelle, Pacific Northwest Division and studies were performed according to the “Guide for the Care and Use of Laboratory Animals” (National Research Council, Washington D.C., 1996).
# Dosing regimen. Animals were restricted from food overnight prior to exposure. At the time of exposure, groups of animals (N=6) received a single intravenous (IV) injection (0.2 mL) of ^60Co solution at 14.0±0.6 KBq dose in sterile saline via an indwelling jugular vein cannula. […] The actual doses delivered were calculated based on the individual animal weights (Table 3). One group of animals was dosed with the radionuclide without subsequent administration of the chelation material to serve as control group. Following dosing, animals were placed in Nalgene metabolism cages for separate collection of urine and feces. […] Animals were sacrificed 48 hr post radionuclide administration. At sacrifice, blood and tissues (liver, kidney, spleen, gastrointestinal tract, muscle, bone, bone marrow, and lung) were collected, weighed and counted for radioactivity using a Wallac 1480 gamma counter. Gamma count data were normalized to percent administered dose after adjusting the grams of tissue collected for total organ mass.
# Data statistical evaluation. Each data group was subjected to Dixon's Q-test to evaluate for potential outliers. In this test Q parameter of 0.625 (N=6, 95% confidence level, a=0.05) was used (1). For each tissue, a preliminary F-test (95% confidence level, a=0.05) for the equality of variances of the control and each treatment group was performed using Excel software. If the calculated probability p value was less than 0.05, the variances were assumed to be not equal. Based on this information, “T-test: Two-Sample Assuming Unequal Variances” or “T-test: Two-Sample Assuming Equal Variances” (95% confidence level, a=0.05) was performed using Excel software. The calculated p-value less than 0.05 provides evidence to reject the null hypothesis of equal means. The obtained statistical parameters listed in Table 4 served as guidelines for data evaluation (Table 5; calculation assumes that total skeleton, blood, or muscle is approximately 7.3, 6, or 40% of the body weight of the animal, respectively; Co-60 in skeleton is calculated based on the femur data—R. P. Brown, M. D. Delp, S. L. Undstedt, L. R. Rhomberg, and R. P. Beliles, Physiological Parameter Values for Physiologically Based Pharmacokinetic Models. Toxicology and Industrial Health, 1997, 13(4): 407-484).
# [10] = Tl^1+; cited from earlier work
# [11] = Ag^1+, cited from earlier work
# [12] = Hg^2+, cited from earlier work
# [13] = single oral dose 15 mg/kg, day 1 post exposure
structure (smiles),measurement,setting,value
"CC(C)(S)[C@@H](N)C(=O)O [Penicillamine, 3-mercapto-D-valine]",% Reduction of Po-210 vs Po-210 Control,[1]; Blood,18%
same,Po-210 dpm/gm for animal group,[1]; Blood,28482 ± 6375 dpm/gm
same,Po-210 dpm/gm for animal group,[1]; Femur,22969 ± 4055 dpm/gm
same,% Reduction of Po-210 vs Po-210 Control,[1]; Kidney,−15%
same,Po-210 dpm/gm for animal group,[1]; Kidney,216172 ± 31993 dpm/gm
same,% Reduction of Po-210 vs Po-210 Control,[1]; Liver,12%
same,Po-210 dpm/gm for animal group,[1]; Liver,124648 ± 47423 dpm/gm
same,% Reduction of Po-210 vs Po-210 Control,[1]; Lung,20%
same,effect on polonium-210 level (in words),[1]; Lung,reduced
same,Po-210 dpm/gm for animal group,[1]; Lung,67342 ± 7895 dpm/gm
same,Po-210 dpm/gm for animal group,[1]; Spleen,236736 ± 35488 dpm/gm
same,% Reduction of Po-210 vs Po-210 Control,[1]; femur,13%
same,effect on polonium-210 level (in words),[1]; femur,reduced
same,% Reduction of Po-210 vs Po-210 Control,[1]; spleen,44%
same,effect on polonium-210 level (in words),[1]; spleen,reduced
same,binding stability constant (log K),[2],18.18 (Cu^1+)
same,binding stability constant (log K),[2]; listed as penicillamine,very strongly
same,binding stability constant (log K),[3],15.33
same,binding stability constant (log K),[3]; listed as penicillamine,very strongly
same,binding stability constant (log K),[4],11.55
same,binding stability constant (log K),[4]; listed as penicillamine,fairly strong
same,binding stability constant (log K),[5],9.71
same,binding stability constant (log K),[5]; listed as penicillamine,fairly strong
same,binding stability constant (log K),[6],10.70
same,binding stability constant (log K),[6]; listed as penicillamine,fairly strong
same,binding stability constant (log K),[7],8.98
same,binding stability constant (log K),[8],12.3
same,binding stability constant (log K),[8]; listed as penicillamine,fairly strong
same,Co-60 Dose % for animal group,"[9]; Blood, single oral dose 15 mg/kg",0.089 ± 0.014%
same,% Reduction of Co-60 vs Co-60 Control,"[9]; Blood, single oral dose 15 mg/kg, 48 hr",0%
same,Co-60 Dose % for animal group,"[9]; Bone Marrow, single oral dose 15 mg/kg",Below detection
same,Co-60 Dose % for animal group,"[9]; Intestine, single oral dose 15 mg/kg",0.94 ± 0.25%
same,% Reduction of Co-60 vs Co-60 Control,"[9]; Intestine, single oral dose 15 mg/kg, 48 hr",47%
same,Co-60 Dose % for animal group,"[9]; Kidney, single oral dose 15 mg/kg",0.31 ± 0.07%
same,% Reduction of Co-60 vs Co-60 Control,"[9]; Kidney, single oral dose 15 mg/kg, 48 hr",56%
same,Co-60 Dose % for animal group,"[9]; Liver, single oral dose 15 mg/kg",0.99 ± 0.25%
same,% Reduction of Co-60 vs Co-60 Control,"[9]; Liver, single oral dose 15 mg/kg, 48 hr",51%
same,Co-60 Dose % for animal group,"[9]; Lung, single oral dose 15 mg/kg",0.16 ± 0.07%
same,% Reduction of Co-60 vs Co-60 Control,"[9]; Lung, single oral dose 15 mg/kg, 48 hr",0%
same,Co-60 Dose % for animal group,"[9]; Muscle, single oral dose 15 mg/kg",0.63 ± 0.18%
same,% Reduction of Co-60 vs Co-60 Control,"[9]; Muscle, single oral dose 15 mg/kg, 48 hr",39%
same,Co-60 Dose % for animal group,"[9]; Spleen, single oral dose 15 mg/kg",0.056 ± 0.007%
same,% Reduction of Co-60 vs Co-60 Control,"[9]; Spleen, single oral dose 15 mg/kg, 48 hr",0%
same,Co-60 Dose % for animal group,"[9]; Stomach, single oral dose 15 mg/kg",0.041 ± 0.014%
same,% Reduction of Co-60 vs Co-60 Control,"[9]; Stomach, single oral dose 15 mg/kg, 48 hr",45%
same,Co-60 Dose % for animal group,"[9]; Total Skeleton (from femur data), single oral dose 15 mg/kg",0.32 ± 0.17%
same,% Reduction of Co-60 vs Co-60 Control,"[9]; Total Skeleton, single oral dose 15 mg/kg, 48 hr",49%
same,effect on blood levels of Co-60,"[9]; single oral dose 15 mg/kg, 48 hr",slightly decreased
same,effect on urinary elimination of Co-60,[9]; [13],did not change
same,increase of fecal elimination of Co-60,[9]; [13],about 3%
same,effect on total Co-60 excretion (urine and feces),[9]; single oral dose 15 mg/kg,slightly increased
same,effect on total Co-60 excretion (urine and feces),"[9]; single oral dose 15 mg/kg, listed as penicillamine",appeared to accelerate
same,"reduction in the fraction of administered dose in the skeleton (based on femur data), liver and kidney","[9]; single oral dose, Co-60",51-56%
same,binding stability constant (log K),[10],3.58
same,binding stability constant (log K),[11],12.4
same,binding stability constant (log K),[11]; listed as penicillamine,fairly strong
same,binding stability constant (log K),[12],16.3
same,binding stability constant (log K),[12]; listed as penicillamine,very strongly
